Measurements: ChEMBL document CHEMBL1781917, “Computational aqueous solubility prediction for drug-like compounds in congeneric series” (Eur J Med Chem, 2008)

Experiments:
Type in all cases: physicochemical
[1] = Intrinsic solubility, log 1/S0 of the compound
[2] = Lipophilicity, log P of the compound; conditions: octanol/water
[3] = Dissociation constant, pKa of the compound

Row | Structure (SMILES) | log1/S0 [1] | logP [2] | pKa [3]
1 | COc1cnc(NS(=O)(=O)c2ccc(N)cc2)nc1 | 3.63 | 0.46 | 
2 | CC(C)C(NC(=O)Cn1c(-c2ccccc2)cc2c(=O)n(CC(N)=O)c(=O)[nH]c2c1=O)C(=O)C(F)(F)F (stereo unspecified) | 3.6 |  | 
3 | CC(C)C(NC(=O)Cn1c(-c2ccccc2)cc2c(=O)n(C)c(=O)[nH]c2c1=O)C(=O)C(F)(F)F (stereo unspecified) | 4.03 |  | 
4 | COc1ccc(Cn2c(=O)[nH]c3c(=O)n(CC(=O)NC(C(=O)C(F)(F)F)C(C)C)c(-c4ccccc4)cc3c2=O)cc1 (stereo unspecified) | 3.4 |  | 
5 | CCOCCn1c(=O)[nH]c2c(=O)n(CC(=O)NC(C(=O)C(F)(F)F)C(C)C)c(-c3ccccc3)cc2c1=O (stereo unspecified) | 4.83 |  | 
6 | CC(C)C(NC(=O)Cn1c(-c2ccccc2)cc2c(=O)n(CCN3CCOCC3)c(=O)[nH]c2c1=O)C(=O)C(F)(F)F (stereo unspecified) | 3.44 |  | 7.04
7 | COC(OC)n1c(=O)[nH]c2c(=O)n(CC(=O)NC(C(=O)C(F)(F)F)C(C)C)c(-c3ccccc3)cc2c1=O (stereo unspecified) | 3.11 |  | 
8 | CNC(=O)Cn1c(=O)[nH]c2c(=O)n(CC(=O)NC(C(=O)C(F)(F)F)C(C)C)c(-c3ccccc3)cc2c1=O (stereo unspecified) | 3.73 |  | 
9 | O=C1CN=C(c2ccccc2Cl)c2cc(Cl)ccc2N1 [DELORAZEPAM] | 3.97 |  | 
10 | CN1C(=O)CN=C(c2ccccc2)c2cc(Cl)ccc21 [DIAZEPAM] | 3.83 |  | 
11 | CN1CCN=C(c2ccccc2)c2cc(Cl)ccc21 [MEDAZEPAM] | 4.41 |  | 
12 | Nc1ccc(S(=O)(=O)Nc2ncccn2)cc1 [SULFADIAZINE] | 3.67 | -0.13 | 
13 | COc1ncnc(NS(=O)(=O)c2ccc(N)cc2)c1OC [SULFADOXINE] | 3.59 | 1.06 | 
14 | Cc1ccnc(NS(=O)(=O)c2ccc(N)cc2)n1 [SULFAMERAZINE] |  | 0.13 | 
15 | Cc1cc(C)nc(NS(=O)(=O)c2ccc(N)cc2)n1 [SULFAMETHAZINE] |  | 0.89 | 
16 | COc1ccc(NS(=O)(=O)c2ccc(N)cc2)nn1 [SULFAMETHOXYPYRIDAZINE] | 2.55 | 0.4 | 
17 | COc1cc(NS(=O)(=O)c2ccc(N)cc2)nc(C)n1 [SULFAMETOMIDINE] | 3.05 |  | 
18 | Cc1cc(NS(=O)(=O)c2ccc(N)cc2)nc(C)n1 [SULFISOMIDINE] | 2.78 | -0.3 | 
19 | Cc1noc(NS(=O)(=O)c2ccc(N)cc2)c1C [SULFISOXAZOLE] | 3.45 | 1.15 | 
